SMILES strings stand for the structures.

The IC50 is the midpoint of a concentration-inhibition curve. Low values mean higher potency, high ones lower potency.

The first series concerns the target muscarinic acetylcholine receptors. Briefly: inhibition of specific binding of ^3 H-Oxotremorine-M (^3 H-Oxo). The settings on record: ^3 H-Oxotremorine 1.0 nM, rat cortex, 30 min, 25° C. From the text:
The pharmacological properties of the compounds of the invention can be illustrated by determining their capability to inhibit the specific binding of ^3 H-Oxotremorine-M (^3 H-Oxo). Birdsdall N. J. M., Hulme E. C., and Burgen A. S. V. (1980). "The Character of Muscarinic Receptors in Different Regions of the Rat Brain". Proc. Roy. Soc. London (Series B) 207,1.
^3 H-Oxo labels muscarinic receptor in the CNS (with a preference for agonist domains of the receptors). Three different sites are labeled by ^3 H-Oxo. […] Using the present experimental conditions only the high and medium affinity sites are determined.
The inhibitory effects of compounds on ^3 H-oxo binding reflects the affinity for muscarinic acetylcholine receptors.
All preparations are performed at 0°-4° C. unless otherwise indicated. Fresh cortex (0.1-1 g) from male Wistar rats (150-250 g) is homogenized for 5-10 s in 10 mL […] Hepes pH: 7.4, with an Ultra-Turrax homogenizer. The homogenizer is rinsed with 10 mL of buffer and the combined suspension centrifuged for 15 min. at 40,000×g. The pellet is washed three times with buffer. In each step the pellet is homogenized as before in 2×10 mL of buffer and centrifuged for 10 min. at 40,000×g.
The final pellet is homogenized in […] Hepes pH: 7.4 (100 mL per g of original tissue) and used for binding assay. Aliquots of 0.5 mL is added 25 μL of test solution and 25 μL of ^3 H-Oxotremorine (1.0 nM, final concentration) mixed and incubated for 30 min. at 25° C. Non-specific binding is determined in triplicate using arecoline (1 μg/mL, final concentration) as the test substance. After incubation samples are added 5 mL of ice-cold buffer and poured directly onto Whatman GF/C glass fiber filters under suction and immediately washed 2 times with 5 mL of ice-cold buffer. The amount of radioactivity on the filters are determined by conventional liquid scintillation counting. Specific binding is total binding minus non specific binding.
Test substances are dissolved in 10 mL water (if necessary heated on a steam-bath for less than 5 min.) at a concentration of 2.2 mg/mL. 25-75% inhibition of specific binding must be obtained before calculation of IC50. The test value will be given as IC50 (the concentration (nM) of the test substance which inhibits the specific binding of ^3 H-oxo by 50%). IC50 =(applied test substance concentration) x([…])nM where Co is specific binding in control assays and Cx is the specific binding in the test assay. (The calculations assume normal mass-action kinetics).
Regarding `Clc1nccnc1OC1CN2CCC1CC2` (racemic) [Compound 2], the IC50 turned out to be 374 nM.

The compound `CCCCOc1nccnc1OC1CN2CCC1CC2` (racemic) [Compound 3] came in with an IC50 of 19.3 nM.

Take `CCCCOc1nonc1OC1CN2CCC1CC2` (racemic) [Compound 1]: the IC50 amounted to 81 nM. Against the preceding compound, the IC50 is about 4.2-fold higher.

Compound `CCCOc1nccnc1OC1CN2CCC1CC2` (racemic) [Compound 4] returned a half-inhibitory concentration (IC50) of 25 nM.

Turning to `CCCCCCOc1nccnc1OC1CN2CCC1CC2` (racemic) [Compound 5], the IC50 is 40 nM.

In the case of `CCCCSc1nccnc1OC1CN2CCC1CC2` (racemic) [Compound 6], the IC50 came to 2.5 nM.

A further series concerns the target T1, muscarinic receptors (M1 -site, pirenzepine sensitive site) (Rattus norvegicus, UniProt P08482).
T1 construct: from tissue; host or cells: fresh cerebral cortex membranes, male Wistar rat
T1 sequence (P08482 1-460): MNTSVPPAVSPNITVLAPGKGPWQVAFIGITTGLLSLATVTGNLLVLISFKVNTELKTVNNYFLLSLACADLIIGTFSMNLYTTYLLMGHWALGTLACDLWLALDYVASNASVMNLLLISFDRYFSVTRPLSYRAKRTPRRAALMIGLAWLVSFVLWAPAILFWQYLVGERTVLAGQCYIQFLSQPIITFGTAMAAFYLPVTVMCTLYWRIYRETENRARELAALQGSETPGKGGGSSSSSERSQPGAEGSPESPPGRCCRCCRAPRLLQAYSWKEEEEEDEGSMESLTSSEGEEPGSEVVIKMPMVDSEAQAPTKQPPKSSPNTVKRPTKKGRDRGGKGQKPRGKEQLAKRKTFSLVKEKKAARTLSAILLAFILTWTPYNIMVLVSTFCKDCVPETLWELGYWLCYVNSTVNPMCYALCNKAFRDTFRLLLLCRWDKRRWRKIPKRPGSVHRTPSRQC
The series is described as follows: inhibition of ^3 HPRZ (pirenzepine, [N-methyl-^3 H]) binding to rat cerebral cortex membranes. The settings on record: ^3 HPRZ 1.0 nM, 60 min, 20° C. On the procedure: Furthermore the pharmacological properties of the compounds of the invention can also be illustrated by determining their capability to inhibit ^3 HPRZ (pirenzepine, [N-methyl-^3 H]) binding to rat cerebral cortex membranes.
Pirenzepine binds selectively to subtype of muscarinic receptors. Historically the type is named the M1 -site, whereas pirenzepine sensitive site would be more appropriate.
All preparations are performed at 0°-4° C. unless otherwise indicated. Fresh cortex (0.1-1 9) from male Wistar rats (150-200 g) is homogenized for 5-10 s in 10 mL 20 mM Hepes pH: 7.4, with an Ultra-Turrax homogenizer. The homogenizer is rinsed with 2×10 mL of buffer and the combined suspension centrifuged for 15 min. at 40,000×g. The pellet is washed three times with buffer. In each step the pellet is homogenized as before in 3×10 mL of buffer and centrifuged for 10 min. at 40,000×g.
The final pellet is homogenized in 20 mM Hepes pH: 7.4 (100 mL per g of original tissue) and used for binding assay. Aliquots of 0.5 mL is added 20 μL of test solution and 25 μL of ^3 HPRZ (1.0 nM, final conc.), mixed and incubated for 60 min. at 20° C. Non-specific binding is determined in triplicate using atropine (1.0 μg/mL, final conc.) as the test substance. After incubation samples are added 5 mL of ice-cold buffer and poured directly onto Whatman GF/C glass fiber filters under suction and immediately washed 2 times with 5 mL of ice-cold buffer. The amount of radioactivity on the filters are determined by conventional liquid scintillation counting. Specific binding is total binding minus non-specific binding.
Test substances are dissolved in 10 mL water, at a concentration of 0.22 mg/mL. 25-75% inhibition of specific binding must be obtained before calculation of IC50.
The test value will be given as IC50 (the concentration (nM) of the test substance which inhibits the specific binding of ^3 HPRZ by 50%). IC50 =(applied test substance concentration) x(Cx /Co -Cx)nM where Co is specific binding in control assays and Cx is the specific binding in the test assay. (The calculations assume normal mass-action kinetics).
The compound `Clc1nccnc1OC1CN2CCC1CC2` (racemic) [Compound 2] registered an IC50 of 253 nM.

Take `COCCSc1nccnc1O[C@H]1CN2CCC[C@@H]1C2` (relative stereo) [Compound 41]: the half-inhibitory concentration (IC50) was determined as 1.6 nM.

As to `CCCCSc1nccnc1OCC[N+](C)(C)C` [Compound 18], the IC50 was found to be 5.4 nM. Against the preceding compound, the IC50 is about 3.4-fold higher.

Consider `CCCCOc1nccnc1OC1CN2CCC1CC2` (racemic) [Compound 3], for which the IC50 was determined as 14.5 nM.

With `CN1CCC[C@H]1COc1cnccn1` [Compound 28], the IC50 was determined as 5710 nM.

On to `CCCCSc1nccnc1O[C@H]1CN2CCC[C@@H]1C2` (relative stereo) [Compound 24], for which the IC50 worked out at 0.54 nM. This IC50 lies about 11000-fold lower than the previous one.

Compound `CCCCCCSc1nccnc1OC1CN2CCC1CC2` (racemic) [Compound 12] had an IC50 of 13 nM.

Compound `CCCCCSc1nccnc1O[C@H]1CN2CCC[C@@H]1C2` (relative stereo) [Compound 30] showed an IC50 of 0.82 nM.

Take `FC(F)(F)CCCSc1nccnc1O[C@H]1CN2CCC[C@@H]1C2` (relative stereo) [Compound 35]: the IC50 was found to be 0.54 nM. Against the preceding compound, the IC50 is about 1.5-fold lower.

`CCCCOc1nonc1OC1CN2CCC1CC2` (racemic) [Compound 1] yielded an IC50 of 56 nM. This IC50 lies about 100-fold higher than the previous one.

The compound `Clc1nccnc1O[C@H]1CN2CCC[C@@H]1C2` (relative stereo) [Compound 19] displayed an IC50 of 108 nM.

Compound `CC(C)CSc1nccnc1O[C@H]1CN2CCC[C@@H]1C2` (relative stereo) [Compound 31] showed an IC50 of 1.7 nM.

Compound `CN(C)CCOc1cnccn1` [Compound 26] had an IC50 of over 1000 nM.

`CCCCOc1nccnc1O[C@H]1CN2CCC[C@@H]1C2` (relative stereo) [Compound 23] yielded an IC50 of 2.7 nM.

The compound `Cc1nccnc1O[C@H]1CN2CCC[C@@H]1C2` (relative stereo) [Compound 20] came in with an IC50 of 246 nM. This IC50 lies about 91-fold higher than the previous one.

`C[N+](C)(C)CCOc1cnccn1` [Compound 27] showed an IC50 of over 1000 nM.

For the compound `c1cnc(OC2CN3CCC2CC3)cn1` (racemic) [Compound 8], the IC50 was over 1000 nM.

Compound `CCCCCCCSc1nccnc1OC1CN2CCC1CC2` (racemic) [Compound 16] gave an IC50 of 23 nM.

The compound `CC(C)CCSc1nccnc1O[C@H]1CN2CCC[C@@H]1C2` (relative stereo) [Compound 37] returned an IC50 of 0.76 nM. This IC50 lies about 30-fold lower than the previous one.

`CCCSc1nccnc1O[C@H]1CN2CCC[C@@H]1C2` (relative stereo) [Compound 29] yielded an IC50 of 0.68 nM.

Regarding `CCSc1nccnc1OC1CN2CCC1CC2` (racemic) [Compound 14], the IC50 came out at 21 nM.

In the case of `CCCOc1nccnc1OC1CN2CCC1CC2` (racemic) [Compound 4], the IC50 was found to be 21 nM.

`CCCCSc1nccnc1OCCN(C)C` [Compound 17] returned an IC50 of 4.5 nM.

`CCCCCCOc1nccnc1OC1CN2CCC1CC2` (racemic) [Compound 5] had an IC50 of 32 nM. Compared with the last compound, the IC50 is about 7.1-fold higher.

For the compound `CCCCCSc1nccnc1OC1CN2CCC1CC2` (racemic) [Compound 7], the IC50 came out at 6.7 nM.

Compound `COc1nccnc1OC1CN2CCC1CC2` (racemic) [Compound 10] gave an IC50 of 223 nM.

`CCCCSc1nccnc1OC1CN2CCC1CC2` (racemic) [Compound 6] had an IC50 of 0.9 nM.

Take `C(=Cc1ccccc1)CSc1nccnc1O[C@H]1CN2CCC[C@@H]1C2` (relative stereo) [Compound 42]: the IC50 worked out at 4.8 nM.

In the case of `CCCSc1nccnc1OC1CN2CCC1CC2` (racemic) [Compound 15], the 50% inhibitory concentration (IC50) stood at 13 nM. Against the preceding compound, the IC50 is about 2.7-fold higher.

Compound `c1cnc(O[C@H]2CN3CCC[C@@H]2C3)cn1` [Compound 21] displayed an IC50 of 123 nM. This IC50 is about 9.5-fold higher than that of the compound before.

As to `FC(F)(F)CSc1cncc(O[C@H]2CN3CCC[C@@H]2C3)n1` (relative stereo) [Compound 40], the IC50 worked out at 17 nM.

Regarding `C=CCSc1nccnc1O[C@H]1CN2CCC[C@@H]1C2` (relative stereo) [Compound 36], the IC50 is 5.8 nM.

On to `CSc1nccnc1OC1CN2CCC1CC2` (racemic) [Compound 13], for which the IC50 amounted to 42 nM.

`CCOc1nccnc1OC1CN2CCC1CC2` (racemic) [Compound 11] displayed an IC50 of 53 nM.

Take `C/C=C/CSc1nccnc1O[C@H]1CN2CCC[C@@H]1C2` (relative stereo) [Compound 34]: the half-inhibitory concentration (IC50) turned out to be 0.66 nM.

In turn, `CCCCCOc1nccnc1OC1CN2CCC1CC2` (racemic) [Compound 9] returned an IC50 of 30 nM.

Compound `FC(F)(F)Oc1ccc(CSc2nccnc2O[C@H]2CN3CCC[C@@H]2C3)cc1` (relative stereo) [Compound 38] gave an IC50 of 3.3 nM.

In turn, `CCSc1nccnc1O[C@H]1CN2CCC[C@@H]1C2` (relative stereo) [Compound 32] had an IC50 of 4 nM.

As for `FC(F)(F)CSc1nccnc1O[C@H]1CN2CCC[C@@H]1C2` (relative stereo) [Compound 33], the IC50 is 0.7 nM. This IC50 is about 5.7-fold lower than that of the compound before.

Compound `CCCSc1cncc(O[C@H]2CN3CCC[C@@H]2C3)n1` (relative stereo) [Compound 39] showed an IC50 of 80 nM.

`CC(C)=CCCSc1nccnc1O[C@H]1CN2CCC[C@@H]1C2` (relative stereo) [Compound 43]: the IC50 turned out to be 2.2 nM.

`CN1[C@@H]2CC[C@H]1C[C@@H](Oc1cnccn1)C2` [Compound 25] registered an IC50 of 680 nM.

`Clc1cncc(O[C@H]2CN3CCC[C@@H]2C3)n1` (relative stereo) [Compound 22] registered an IC50 of 52 nM.

Test system in the next series: not given
Assay: not given
The note with it: in vivo; cited from earlier work.
On to `CCCC(C)(COC(N)=O)COC(N)=O` [meprobamate], for which the side effects entry was “numerous side effects such as potential for abuse and addiction or potentiation of the effects of ethanol”.

The next series addresses muscarinic receptor in the CNS.
Assay: not given
The settings on record: first (high affinity) site; cited from earlier work.
As for `C[N+](C)(C)CC#CCN1CCCC1=O` [^3 H-Oxo, ^3 H-Oxotremorine-M], the Kd was 1.8 nM.

Still in this series, the particulars now being: second (medium affinity) site; cited from earlier work.
Turning to `C[N+](C)(C)CC#CCN1CCCC1=O` [^3 H-Oxo, ^3 H-Oxotremorine-M], the Kd was 20 nM.

The series is the same for the next values; noted with them: third site, not determined under present conditions; read-out: affinity; cited from earlier work.
On to `C[N+](C)(C)CC#CCN1CCCC1=O` [^3 H-Oxo, ^3 H-Oxotremorine-M], for which the Kd is 3000 nM.

The values above are taken from patent US5763457A, “Method for treating anxiety” (Eli Lilly and Company, priority 1996, dated 1998).
